{
  "source": "ChEMBL document CHEMBL4406816",
  "about": "“Role of sulphur-heterocycles in medicinal chemistry: An update” (Eur J Med Chem, 2019)",
  "tested_on": "Mycobacterium tuberculosis variant bovis",
  "assay": "Antitubercular activity against Mycobacterium bovis",
  "assay_type": "functional",
  "data": [
    {"compound": "Fc1ccc(-c2cn(Cc3csc(-c4ccccc4)n3)nn2)cc1", "values": [
      {"measurement": "MIC", "result": 1.69, "unit": "µg/mL"}
    ]}
  ]
}
